In the supplement of paper PMC10307832:

How the values were obtained:
Experiment in all cases: relative viability (nuclei count vs DMSO), 5 days (fraction); higher = more cells survive
Ibrutinib + Lapatinib = compound: C=CC(=O)N1CCC[C@@H](n2nc(-c3ccc(Oc4ccccc4)cc3)c3c(N)ncnc32)C1 [Ibrutinib] + CS(=O)(=O)CCNCc1ccc(-c2ccc3ncnc(Nc4ccc(OCc5cccc(F)c5)c(Cl)c4)c3c2)o1 [Lapatinib] (partner 2 µM)
How it was run: (§1)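 Values are medians from duplicate plates. Each reflects relative viability, defined as the nuclei count of treated wells over that of vehicle wells. Lung cancer cell lines in 1536-well plates were pin-tool dosed one day after seeding with one drug alone or with a fixed anchor-drug dose plus five library-drug doses (not always all listed) in √10 steps, then fixed, stained and imaged at 4× after 5 days.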

BMX-IN-1 + Trametinib = compound: C=CC(=O)Nc1cc(-n2c(=O)ccc3cnc4ccc(-c5ccc(NS(C)(=O)=O)cc5)cc4c32)ccc1C [BMX-IN-1] + CC(=O)Nc1cccc(-n2c(=O)n(C3CC3)c(=O)c3c(Nc4ccc(I)cc4F)n(C)c(=O)c(C)c32)c1 [Trametinib] (partner 0.02 µM)
How it was run: as §1

BMX-IN-1 + Pictilisib = compound: C=CC(=O)Nc1cc(-n2c(=O)ccc3cnc4ccc(-c5ccc(NS(C)(=O)=O)cc5)cc4c32)ccc1C [BMX-IN-1] + CS(=O)(=O)N1CCN(Cc2cc3nc(-c4cccc5[nH]ncc45)nc(N4CCOCC4)c3s2)CC1 [Pictilisib] (partner 1 µM)
How it was run: as §1

PAC-1 + Luminespib = compound: C=CCc1cccc(/C=N/NC(=O)CN2CCN(Cc3ccccc3)CC2)c1O [PAC-1] + CCNC(=O)c1noc(-c2cc(C(C)C)c(O)cc2O)c1-c1ccc(CN2CCOCC2)cc1 [Luminespib] (partner 0.01 µM)
How it was run: as §1

Row | Cell Line | relative viability (Ibrutinib + Lapatinib; first compound 0.005 µM) | relative viability (Ibrutinib + Lapatinib; first compound 0.01581 µM) | relative viability (Ibrutinib + Lapatinib; first compound 0.05 µM) | relative viability (Ibrutinib + Lapatinib; first compound 0.1581 µM) | relative viability (Ibrutinib + Lapatinib; first compound 0.5 µM) | relative viability (BMX-IN-1 + Trametinib; first compound 0.02 µM) | relative viability (BMX-IN-1 + Trametinib; first compound 0.2 µM) | relative viability (BMX-IN-1 + Trametinib; first compound 0.6325 µM) | relative viability (BMX-IN-1 + Trametinib; first compound 2 µM) | relative viability (BMX-IN-1 + Pictilisib; first compound 0.02 µM) | relative viability (BMX-IN-1 + Pictilisib; first compound 0.2 µM) | relative viability (BMX-IN-1 + Pictilisib; first compound 0.6325 µM) | relative viability (BMX-IN-1 + Pictilisib; first compound 2 µM) | relative viability (PAC-1 + Luminespib; first compound 0.02 µM) | relative viability (PAC-1 + Luminespib; first compound 0.06325 µM) | relative viability (PAC-1 + Luminespib; first compound 0.2 µM) | relative viability (PAC-1 + Luminespib; first compound 2 µM)
1 | NCI-H647 | 0.799 | 0.934 | 1.06 | 1.11 | 1.19 | 0.702 | 0.563 | 0.467 | 0.474 | 0.498 | 0.356 | 0.396 | 0.471 | 0.103 | 0.123 | 0.286 | 0.16
2 | NCI-H650 | – | 0.867 | – | 1 | 0.883 | 1.01 | 0.912 | 0.979 | 0.919 | 1.02 | 0.826 | 0.872 | 0.772 | 0.701 | 0.929 | 0.882 | 0.748
3 | NCI-H661 | 0.414 | 0.504 | 0.489 | 0.571 | 0.426 | 0.634 | 0.597 | 0.642 | 0.535 | 0.349 | 0.436 | 0.368 | 0.316 | 0.951 | 0.882 | 0.821 | 0.736
4 | NCI-H727 | 0.734 | 0.735 | 1.2 | 0.496 | 0.852 | 0.419 | 0.429 | 0.387 | 0.4 | 0.439 | 0.416 | 0.403 | 0.337 | 0.255 | 0.371 | 0.639 | 0.315
5 | NCI-H838 | 0.796 | 0.893 | 1 | 0.894 | 1.08 | 0.605 | 0.518 | 0.562 | 0.568 | 0.535 | 0.444 | 0.598 | 0.472 | 0.254 | 0.374 | 0.238 | 0.301
6 | NCI-H1355 | – | 0.975 | 1.07 | 0.92 | 0.963 | 0.385 | 0.459 | 0.463 | 0.45 | 0.374 | 0.443 | 0.487 | 0.434 | 0.762 | 0.668 | 0.797 | 0.778
7 | NCI-H1395 | 1.1 | 1.04 | 1.04 | 0.869 | 1.05 | 1.19 | 1.12 | 0.958 | 0.966 | 0.82 | 1.02 | 0.701 | 0.61 | 0.656 | 0.585 | 0.651 | 0.653
8 | NCI-H1437 | 0.799 | 0.677 | 0.775 | 0.604 | 0.893 | 0.677 | 0.489 | 0.605 | 0.614 | 0.455 | 0.391 | 0.425 | 0.462 | 1.15 | 1.13 | 1.06 | 0.907
9 | NCI-H1650 | 0.685 | 0.734 | 0.843 | 0.682 | 0.844 | 0.576 | 0.539 | 0.682 | 0.611 | 0.776 | 0.675 | 0.705 | 0.548 | 0.191 | 0.199 | 0.209 | 0.191
10 | NCI-H1651 | 0.699 | 0.756 | 0.796 | 0.723 | 0.906 | 0.866 | 0.908 | 0.879 | 0.893 | 0.658 | 0.754 | 0.741 | 0.595 | 0.789 | 0.859 | 0.744 | 0.905
11 | NCI-H1666 | 0.722 | 0.583 | 0.814 | 0.749 | 0.761 | 0.788 | 1.06 | 0.977 | 0.885 | 0.404 | 0.365 | 0.428 | 0.396 | 0.981 | 1.08 | 1.08 | 0.864
12 | NCI-H1734 | 0.843 | 1.01 | 1.14 | 1.19 | 1.04 | 0.732 | 0.751 | 0.735 | 0.7 | 0.529 | 0.541 | 0.488 | 0.432 | 0.169 | 0.178 | 0.18 | 0.189
13 | NCI-H1755 | – | 0.991 | 1.08 | 0.981 | 1.05 | 0.703 | 0.81 | 0.853 | 0.695 | 0.446 | 0.541 | 0.498 | 0.423 | 0.482 | 0.306 | 0.502 | 0.563
14 | NCI-H1792 | 0.907 | 0.896 | 0.913 | 0.73 | 0.912 | 0.645 | 0.485 | 0.44 | 0.391 | 0.321 | 0.299 | 0.227 | 0.253 | 0.355 | 0.484 | 0.47 | 0.416
15 | NCI-H1793 | – | 0.796 | 0.819 | 0.58 | 0.577 | 0.544 | 0.454 | 0.505 | 0.454 | 0.306 | 0.309 | 0.365 | 0.279 | 0.207 | 0.216 | 0.164 | 0.17
16 | NCI-H1915 | – | 0.987 | 1.01 | 1.06 | 1.06 | 0.326 | 0.302 | 0.519 | 0.317 | 0.953 | 0.898 | 1.14 | 1.04 | 0.792 | 0.845 | 0.68 | 0.779
17 | NCI-H1944 | 0.818 | 0.818 | 0.771 | 0.7 | 0.844 | 0.395 | 0.416 | 0.419 | 0.392 | 0.386 | 0.352 | 0.387 | 0.336 | 0.766 | 0.685 | 0.765 | 0.701
18 | NCI-H1975 | 0.899 | 0.772 | 0.837 | 0.79 | 0.517 | 0.309 | 0.348 | 0.395 | 0.377 | 0.285 | 0.291 | 0.363 | 0.287 | 0.242 | 0.188 | 0.253 | 0.167
